Data as given in patent US20080221095A1, “Metalloprotease inhibitors containing a heterocyclic moiety” (priority 2007, published 2008).

Experiments:
Type in all cases: biochemical
[1] = biological target: T1, catalytic domain of MMP-13 enzyme (Homo sapiens, UniProt P45452); experiment: Assay for determining MMP-13 inhibition (fluorescent substrate); conditions: read-out: MMP-13 Activity (IC50 MMP-13), Group
T1 construct: 50 nM stock solution of catalytic domain of MMP-13 enzyme; purchased Invitek (Berlin) 30100812
Procedure: Assay for Determining MMP-13 Inhibition
The typical assay for MMP-13 activity is carried out in assay buffer comprised of 50 mM Tris, pH 7.5, 150 mM NaCl, 5 mM CaCl2 and 0.05% Brij-35. Different concentrations of tested compounds are prepared in assay buffer in 50 μL aliquots. 10 μL of a 50 nM stock solution of catalytic domain of MMP-13 enzyme (produced by Alantos or commercially available from Invitek (Berlin), Cat.#30100812) is added to the compound solution. The mixture of enzyme and compound in assay buffer is thoroughly mixed and incubated for 10 min at room temperature. Upon the completion of incubation, the assay is started by addition of 40 μL of a 12.5 μM stock solution of MMP-13 fluorescent substrate (Calbiochem, Cat. No. 444235). The time-dependent increase in fluorescence is measured at the 320 nm excitation and 390 nm emission by automatic plate multireader. The IC50 values are calculated from the initial reaction rates.

activated MMP-8 enzyme = biological target: T2, activated MMP-8 enzyme (Homo sapiens, UniProt P22894); experiment: Assay for determining MMP-8 inhibition (fluorescent substrate); conditions: read-out: MMP-8 Activity (IC50 MMP-8), Group
T2 construct: purchased Calbiochem 444229
Procedure: Assay for Determining MMP-8 Inhibition
The typical assay for MMP-8 activity is carried out in assay buffer comprised of 50 mM Tris, pH 7.5, 150 mM NaCl, 5 mM CaCl2 and 0.05% Brij-35. Different concentrations of tested compounds are prepared in assay buffer in 50 μL aliquots. 10 μL of a 50 nM stock solution of activated MMP-8 enzyme (Calbiochem, Cat. No. 444229) is added to the compound solution. The mixture of enzyme and compound in assay buffer is thoroughly mixed and incubated for 10 min at 37° C. Upon the completion of incubation, the assay is started by addition of 40 μL of a 10 μM stock solution of OmniMMP fluorescent substrate (Biomol, Cat. No. P-126). The time-dependent increase in fluorescence is measured at the 320 nm excitation and 390 nm emission by an automatic plate multireader at 37° C. The IC50 values are calculated from the initial reaction rates.

[2] = biological target: T3, catalytic domain of MMP-3 enzyme (Homo sapiens, UniProt P08254); experiment: Assay for determining MMP-3 inhibition (fluorescent substrate); conditions: read-out: MMP-3 Activity (IC50 MMP-3), Group
T3 construct: 100 nM stock solution of the catalytic domain of MMP-3 enzyme (Biomol, Cat. No. SE-1 09); purchased Biomol SE-1 09
Procedure: Assay for Determining MMP-3 Inhibition
The typical assay for MMP-3 activity is carried out in assay buffer comprised of 50 mM MES, pH 6.0, 10 mM CaCl2 and 0.05% Brij-35. Different concentrations of tested compounds are prepared in assay buffer in 50 μL aliquots. 10 μL of a 100 nM stock solution of the catalytic domain of MMP-3 enzyme (Biomol, Cat. No. SE-1 09) is added to the compound solution. The mixture of enzyme and compound in assay buffer is thoroughly mixed and incubated for 10 min at room temperature. Upon the completion of incubation, the assay is started by addition of 40 μL of a 12.5 μM stock solution of NFF-3 fluorescent substrate (Calbiochem, Cat. No. 480455). The time-dependent increase in fluorescence is measured at the 330 nm excitation and 390 nm emission by an automatic plate multireader. The IC50 values are calculated from the initial reaction rates.

T3 sequence (P08254 100-272 limits assumed): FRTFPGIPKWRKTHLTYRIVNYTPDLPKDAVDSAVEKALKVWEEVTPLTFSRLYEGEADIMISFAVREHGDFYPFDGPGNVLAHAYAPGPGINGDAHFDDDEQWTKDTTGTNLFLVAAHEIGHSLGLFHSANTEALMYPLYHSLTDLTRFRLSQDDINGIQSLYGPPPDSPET
T2 sequence (P22894 101-467): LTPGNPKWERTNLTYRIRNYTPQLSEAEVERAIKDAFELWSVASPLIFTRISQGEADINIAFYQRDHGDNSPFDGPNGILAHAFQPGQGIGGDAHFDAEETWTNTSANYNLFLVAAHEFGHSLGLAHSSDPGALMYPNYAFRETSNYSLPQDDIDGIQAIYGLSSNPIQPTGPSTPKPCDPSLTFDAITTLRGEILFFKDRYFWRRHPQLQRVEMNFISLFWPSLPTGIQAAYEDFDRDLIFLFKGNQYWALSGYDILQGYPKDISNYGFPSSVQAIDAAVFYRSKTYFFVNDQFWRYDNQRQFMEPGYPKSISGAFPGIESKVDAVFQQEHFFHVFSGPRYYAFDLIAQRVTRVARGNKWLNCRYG

Row | IC50 [1] [nM] | IC50 (activated MMP-8 enzyme) [nM] | IC50 [2] [nM] | SMILES
1 | 100 to 20000 | – | – | Cc1ccc2nc(NC(=O)Cc3ccc4c(c3)NC(=O)CO4)[nH]c(=O)c2c1 [1/34]
2 | 100 to 20000 | – | – | O=C1COc2ccc(CNC(=O)c3nc4ccc(F)cc4c(=O)[nH]3)c(F)c2N1 [1/23]
3 | < 100 | – | – | Cc1sc2nc(C(=O)NCc3ccc4c(c3)-n3cnnc3CO4)[nH]c(=O)c2c1C [1/19]
4 | < 100 | – | – | O=C1COc2cc(F)c(CNC(=O)c3nc4ccccc4c(=O)[nH]3)cc2N1 [1/25]
5 | < 100 | < 250 | < 250 | Cc1csc2nc(C(=O)NCc3ccc4c(c3)NC(=O)CO4)[nH]c(=O)c12 [1/9]
6 | < 100 | – | – | O=C1COc2ccc(CNC(=O)c3ncc(-c4ccc(F)cc4)c(=O)[nH]3)cc2N1 [1/33]
7 | 100 to 20000 | – | – | Cc1sc2nc(C(=O)NCc3ccc4c(c3F)NC(=O)CO4)[nH]c(=O)c2c1C [1/24]
8 | 100 to 20000 | – | – | O=C1COc2c(F)c(F)cc(CNC(=O)c3nc4ccccc4c(=O)[nH]3)c2N1 [1/27]
9 | < 100 | < 250 | < 250 | O=C1COc2ccc(CNC(=O)c3nc4ccccc4c(=O)[nH]3)cc2N1 [1/4]
10 | 100 to 20000 | – | – | O=C1COc2ncc(CNC(=O)c3nc4ccccc4c(=O)[nH]3)cc2N1 [1/13]
11 | < 100 | 250 to 20000 | – | O=C(NCc1ccc2c(c1)NC(=S)CO2)c1nc2ccccc2c(=O)[nH]1 [1/16]
12 | < 100 | 250 to 20000 | – | Cc1sc2nc(C(=O)NCc3cnc4c(c3)NC(=O)CO4)[nH]c(=O)c2c1C [1/15]
13 | < 100 | – | – | O=C1COc2c(F)cc(CNC(=O)c3nc4ccccc4c(=O)[nH]3)cc2N1 [1/10]
14 | 100 to 20000 | – | – | O=C1COc2ccc(CNC(=O)c3nc4sc5c(c4c(=O)[nH]3)CCC3(CCN(C(=O)OCc4ccccc4)CC3)C5)cc2N1 [Example 1]
15 | < 100 | < 250 | < 250 | O=C1COc2ccc(CNC(=O)c3nc4sc5c(c4c(=O)[nH]3)CCC3(C5)OCCO3)cc2N1 [1/32]
16 | < 100 | – | – | O=C(NCc1ccc2c(c1)-n1cnnc1CO2)c1nc2ccccc2c(=O)[nH]1 [1/18]
17 | 100 to 20000 | – | – | CC(NC(=O)c1nc2ccccc2c(=O)[nH]1)c1ccc2c(c1)NC(=O)CO2 (stereo not drawn) [1/5]
18 | 100 to 20000 | – | – | O=C(NCc1ccc2c(c1)-n1c(noc1=O)CO2)c1nc2ccccc2c(=O)[nH]1 [1/30]
19 | < 100 | – | 250 to 20000 | CC1N=C(C(=O)NCc2ccc3c(c2)NC(=O)CO3)NC(=O)C1c1ccccc1 (stereo not drawn) [1/29]
20 | < 100 | 250 to 20000 | – | Cn1c(=O)oc2ccc(CNC(=O)c3nc4ccccc4c(=O)[nH]3)cc21 [1/7]
21 | 100 to 20000 | 250 to 20000 | – | CN1C(=O)COc2ccc(CNC(=O)c3nc4ccccc4c(=O)[nH]3)cc21 [1/8]
22 | 100 to 20000 | – | – | O=C1COc2ccc(CNC(=O)c3nc(-c4ccccc4)cc(=O)[nH]3)cc2N1 [1/1]
23 | < 100 | – | – | Cc1nc(C(=O)NCc2ccc3c(c2)NC(=O)CO3)[nH]c(=O)c1C [1/2]
24 | < 100 | 250 to 20000 | – | Cc1sc2nc(C(=O)NCc3cc4c(cc3F)OCC(=O)N4)[nH]c(=O)c2c1C [1/26]
25 | < 100 | < 250 | – | O=C1COc2ccc(CNC(=O)c3nc4c(c(=O)[nH]3)C3CCC4CC3)cc2N1 [Example 3]
26 | < 100 | – | – | O=C1COc2c(F)cc(CNC(=O)c3nc4ccc(F)cc4c(=O)[nH]3)cc2N1 [1/11]
27 | < 100 | < 250 | – | Cc1sc2nc(C(=O)NCc3ccc4c(c3)NC(=S)CO4)[nH]c(=O)c2c1C [1/17]
28 | < 100 | < 250 | – | Cc1sc2nc(C(=O)NCc3cc(F)c4c(c3)NC(=O)CO4)[nH]c(=O)c2c1C [1/12]
29 | < 100 | 250 to 20000 | – | CC1Oc2ccc(CNC(=O)c3nc4ccccc4c(=O)[nH]3)cc2NC1=O (stereo not drawn) [1/6]
